Columns and labels:
Human DYRK1B = target: T1, Human DYRK1B (Homo sapiens, UniProt Q9Y463); assay: DYRK1B Kinase TR-FRET (IMAP-Tb) Assay; assay type: biochemical; conditions: for IC50: TR-FRET (IMAP-Tb), ATP 70 μM, 37° C. 60 minutes, read-out: Enzyme IC50 (μM) DYRK1B; for inhibition at 10 µM: read-out: % inhibition of DYRK1B at 10 μM test compound concentration
T1 construct: purchased Invitrogen PR8350B (former PV4649)

Human DYRK1A = target: T2, Human DYRK1A (Homo sapiens, UniProt Q13627); assay: DYRK1A Kinase TR-FRET (IMAP-Tb) Assay; assay type: biochemical; conditions: for IC50: TR-FRET (IMAP-Tb), ATP 70 μM, 37° C. 60 minutes, read-out: Enzyme IC50 (μM) DYRK1A; for inhibition at 10 µM: read-out: % inhibition of DYRK1A at 10 μM test compound concentration
T2 construct: purchased Invitrogen PV3997
Excerpt: The kinase TR-FRET (IMAP-Tb) assay uses a fluorescence labeled substrate peptide in the kinase reaction. Upon phosphorylation by the kinase, phosphopeptide is produced, which will be detected by the binding solution provided in IMAP TR-FRET binding kit. After the completion of the kinase reaction, the reaction will be stopped by adding the binding solution containing terbium tracer. This tracer is immobilized on the surface of the IMAP beads, which also contain metal ions on the beads that bind to the phospho-groups of the products. Thus the phosphorylated product of the reaction can enter into close proximity to the tracer, producing resonance energy transfer. Due to the long lifetime of terbium (Tb) fluorescence the detection can be run in time resolved mode, which virtually eliminates fluorescence interference from assay components or compounds.
The TR-FRET signal measurement from this assay, given as an IC50 measurement, is a measure of a test compound's ability to interfere with the phosphorylation of the peptide substrate, that is it inhibits the phosphorylation of the substrate peptide by DYRK1A, and is thus a measure of the test compound's ability to inhibit the activity of DYRK1A.
• 1. Human DYRK1A: from Invitrogen. Part #PV3997 • 2. Substrate Peptide: […] • 3. IMAP TR-FRET IPP Explorer Kit: from Molecular Devices. Part #R8157 • 4. Kinase Assay Buffer (KAB): 10 mM HEPES pH 7.0, 50 mM NaCl, 5 mM MgCl2, 1 mM DTT, 1 mM NaVO4, 200 μg/mL BSA (0.02%) • 5. Assay Plate: Remp polypropylene clear 384-well microplate. […] Detection Plate: Costa black 384-well microplate.
• 1. Transfer 1.5 μL of 20× compound solution to each well of an assay plate. • 2. Add to each well 22.5 μL of KAB Buffer. • 3. Add to each well 3 μL of the solution of DYRK1A and ATP. […] Add to each well 3 μL of the substrate peptide. The assay concentration is 1.0 μM • 5. Incubate the assay plates at 37° C. for 60 minutes. • 6. Add 18 μL of Detection Solution (1:800 diluted Progress bead stock, 1:400 diluted Tb stock, 80% Buffer A, and 20% Buffer B) into each well of detection plates. • 7. Transfer 6 μL of assay solution from the assay plate to the detection plate. • 8. Shake detection plates for 30 minutes. • 9. Read plates in Envision with wavelength set at excitation 340 nm for Tb, emission 490 nm, and […].

T1 sequence (Q9Y463 whole entry): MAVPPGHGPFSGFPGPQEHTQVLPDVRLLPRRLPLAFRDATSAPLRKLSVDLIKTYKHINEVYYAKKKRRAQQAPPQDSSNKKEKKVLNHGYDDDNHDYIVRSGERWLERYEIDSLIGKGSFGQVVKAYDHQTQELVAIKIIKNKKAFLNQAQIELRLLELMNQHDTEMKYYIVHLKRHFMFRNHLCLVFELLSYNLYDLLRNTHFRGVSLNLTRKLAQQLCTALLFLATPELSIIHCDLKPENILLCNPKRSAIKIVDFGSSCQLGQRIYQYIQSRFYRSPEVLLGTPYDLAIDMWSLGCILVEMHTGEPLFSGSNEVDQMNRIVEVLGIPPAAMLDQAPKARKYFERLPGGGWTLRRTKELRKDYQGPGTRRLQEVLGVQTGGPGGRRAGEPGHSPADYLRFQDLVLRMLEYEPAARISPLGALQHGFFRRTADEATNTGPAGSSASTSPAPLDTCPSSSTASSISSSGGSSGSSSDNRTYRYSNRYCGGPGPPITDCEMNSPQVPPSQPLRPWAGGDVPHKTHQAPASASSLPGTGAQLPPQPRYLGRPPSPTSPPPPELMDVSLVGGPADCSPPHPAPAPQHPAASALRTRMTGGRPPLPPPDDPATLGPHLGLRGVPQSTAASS

SMILES	IC50 (Human DYRK1B) [µM]	IC50 (Human DYRK1A) [µM]	inhibition at 10 µM (Human DYRK1B) [%]	inhibition at 10 µM (Human DYRK1A) [%]
CCN(CC)CCOc1ncc2cc(C(=O)Nc3cc(C(=O)OC)ccc3Cl)c(=O)[nH]c2n1 [Example 45, 4-Chloro-3-{[2-(2-diethylamino-ethoxy)-7-oxo-7,8-dihydro-pyrido[2,3-d]pyrimidine-6-carbonyl]amino}-benzoic acid methyl ester]	0.85	0.729	–	–
COc1ncc2cc(C(=O)Nc3cc(C(=O)NCc4ccc(Cl)cc4)ccc3Cl)c(=O)[nH]c2n1 [Example 46, 2-Methoxy-7-oxo-7,8-dihydro-pyrido[2,3-d]pyrimidine-6-carboxylic acid [2-chloro-5-(4-chloro-benzylcarbamoyl)-phenyl]-amide]	0.192	1.16	–	–
COc1ncc2cc(C(=O)Nc3cc(C(=O)NCc4ccccc4Cl)ccc3Cl)c(=O)[nH]c2n1 [Example 47, 2-Methoxy-7-oxo-7,8-dihydro-pyrido[2,3-d]pyrimidine-6-carboxylic acid [2-chloro-5-(2-chloro-benzylcarbamoyl)-phenyl]-amide]	0.0908	0.0343	–	–
COC(=O)c1ccc(Br)c(NC(=O)c2cc3cnc(OC)nc3[nH]c2=O)c1 [Example 48, 4-Bromo-3-[(2-methoxy-7-oxo-7,8-dihydro-pyrido[2,3-d]pyrimidine-6-carbonyl)-amino]-benzoic acid methyl ester]	0.217	0.205	–	–
COc1ncc2cc(C(=O)Nc3cc(C(=O)OCc4ccccc4)ccc3Cl)c(=O)[nH]c2n1 [Example 50, 4-Chloro-3-[(2-methoxy-7-oxo-7,8-dihydro-pyrido[2,3-d]pyrimidine-6-carbonyl)-amino]-benzoic acid benzyl ester]	–	–	3	30
COc1ncc2cc(C(=O)Nc3cc(C(=O)OCc4ccccc4Cl)ccc3Cl)c(=O)[nH]c2n1 [Example 52, 4-Chloro-3-[(2-methoxy-7-oxo-7,8-dihydro-pyrido[2,3-d]pyrimidine-6-carbonyl)-amino]-benzoic acid 2-chloro-benzyl ester]	5.25	1.19	–	–
COc1ncc2cc(C(=O)Nc3cc(C(=O)OCc4cccc(Cl)c4)ccc3Cl)c(=O)[nH]c2n1 [Example 53, 4-Chloro-3-[(2-methoxy-7-oxo-7,8-dihydro-pyrido[2,3-d]pyrimidine-6-carbonyl)-amino]-benzoic acid 3-chloro-benzyl ester]	> 10	–	–	32
COc1ncc2cc(C(=O)Nc3cc(C(=O)N(C)C)ccc3Cl)c(=O)[nH]c2n1 [Example 55, 2-Methoxy-7-oxo-7,8-dihydro-pyrido[2,3-d]pyrimidine-6-carboxylic acid (2-chloro-5-dimethylcarbamoyl-phenyl)-amide]	1.37	4.1	–	–
COc1ncc2cc(C(=O)Nc3cc(C(=O)NCc4cccc(C(F)(F)F)c4)ccc3Cl)c(=O)[nH]c2n1 [Example 59, 2-Methoxy-7-oxo-7,8-dihydro-pyrido[2,3-d]pyrimidine-6-carboxylic acid [2-chloro-5-(3-trifluoromethyl-benzylcarbamoyl)-phenyl]-amide]	0.222	0.0723	–	–
COc1ncc2cc(C(=O)Nc3cc(C(=O)N(C)Cc4ccccc4)ccc3Cl)c(=O)[nH]c2n1 [Example 60, 2-Methoxy-7-oxo-7,8-dihydro-pyrido[2,3-d]pyrimidine-6-carboxylic acid [5-(benzyl-methyl-carbamoyl)-2-chloro-phenyl]-amide]	0.357	0.561	–	–
COc1ncc2cc(C(=O)Nc3cc(C(=O)NCc4cccc(Cl)c4)ccc3C)c(=O)[nH]c2n1 [Example 62, 2-Methoxy-7-oxo-7,8-dihydro-pyrido[2,3-d]pyrimidine-6-carboxylic acid [5-(3-chloro-benzylcarbamoyl)-2-methyl-phenyl]-amide]	0.437	0.119	–	–
COc1ncc2cc(C(=O)Nc3cc(C(=O)N(C)Cc4cccc(Cl)c4)ccc3C)c(=O)[nH]c2n1 [Example 63, 2-Methoxy-7-oxo-7,8-dihydro-pyrido[2,3-d]pyrimidine-6-carboxylic acid {5-[(3-chloro-benzyl)-methyl-carbamoyl]-2-methyl-phenyl}-amide]	–	4.58	28	–
CN(Cc1cccc(Cl)c1)C(=O)c1ccc(Cl)c(NC(=O)c2cc3cnc(N4CCCCC4)nc3[nH]c2=O)c1 [Example 64, 7-oxo-2-piperidin-1-yl-7,8-dihydro-pyrido[2,3-d]pyrimidine-6-carboxylic acid {2-chloro-5-[(3-chloro-benzyl)-methyl-carbamoyl]-phenyl}-amide]	–	0.903	46.6	–
COc1ncc2cc(C(=O)Nc3cc(C(=O)NCc4ccccn4)ccc3Cl)c(=O)[nH]c2n1 [Example 66, 2-Methoxy-7-oxo-7,8-dihydro-pyrido[2,3-d]pyrimidine-6-carboxylic acid {2-chloro-5-[(pyridin-2-ylmethyl)-carbamoyl]-phenyl}-amide]	0.282	0.16	–	–
COc1ncc2cc(C(=O)Nc3cc(C(=O)NCc4cccnc4)ccc3Cl)c(=O)[nH]c2n1 [Example 67, 2-Methoxy-7-oxo-7,8-dihydro-pyrido[2,3-d]pyrimidine-6-carboxylic acid {2-chloro-5-[(pyridin-3-ylmethyl)-carbamoyl]-phenyl}-amide]	0.669	0.263	–	–
COc1ncc2cc(C(=O)Nc3cc(C(=O)NCc4ccncc4)ccc3Cl)c(=O)[nH]c2n1 [Example 68, 2-Methoxy-7-oxo-7,8-dihydro-pyrido[2,3-d]pyrimidine-6-carboxylic acid {2-chloro-5-[(pyridin-4-ylmethyl)-carbamoyl]-phenyl}-amide]	0.261	0.251	–	–
COc1ncc2cc(C(=O)Nc3cc(C(=O)NCC(C)C)ccc3Cl)c(=O)[nH]c2n1 [Example 79, 2-Methoxy-7-oxo-7,8-dihydro-pyrido[2,3-d]pyrimidine-6-carboxylic acid (2-chloro-5-isobutylcarbamoyl-phenyl)-amide]	1.52	0.779	–	–
CCOC(=O)c1ccc(Cl)c(NC(=O)c2cc3cnc(OC)nc3[nH]c2=O)c1 [Example 82, 4-Chloro-3-[(2-methoxy-7-oxo-7,8-dihydro-pyrido[2,3-d]pyrimidine-6-carbonyl)-amino]-benzoic acid ethyl ester]	1.11	0.463	–	–
O=C(NCc1cccc(Cl)c1)c1ccc(Cl)c(NC(=O)c2cc3cnc(N4CCC(O)CC4)nc3[nH]c2=O)c1 [Example 92, 2-(4-Hydroxy-piperidin-1-yl)-7-oxo-7,8-dihydro-pyrido[2,3-d]pyrimidine-6-carboxylic acid [2-chloro-5-(3-chloro-benzylcarbamoyl)-phenyl]-amide]	0.035	0.0202	–	–
CC(C)(C)CNC(=O)c1ccc(Cl)c(NC(=O)c2cc3cnc(N4CCOCC4)nc3[nH]c2=O)c1 [Example 142, 2-Morpholin-4-yl-7-oxo-7,8-dihydro-pyrido[2,3-d]pyrimidine-6-carboxylic acid [2-chloro-5-(2,2-dimethyl-propylcarbamoyl)-phenyl]-amide]	–	2.43	44	–
O=C(NCc1cccc(Cl)c1)c1cc(NC(=O)c2cc3cnc(N4CCOCC4)nc3[nH]c2=O)c(Cl)cc1F [Example 144, 2-Morpholin-4-yl-7-oxo-7,8-dihydro-pyrido[2,3-d]pyrimidine-6-carboxylic acid [2-chloro-5-(3-chloro-benzylcarbamoyl)-4-fluoro-phenyl]-amide]	–	0.205	23	–
CC(C)(O)CNc1ncc2cc(C(=O)Nc3cc(C(=O)NC(CO)c4ccccc4)ccc3Cl)c(=O)[nH]c2n1 (stereo not shown) [Example 153, N-(2-Chloro-5-(2-hydroxy-1-phenylethylcarbamoyl)phenyl)-2-(2-hydroxy-2-methylpropylamino)-7-oxo-7,8-dihydropyrido[2,3-d]pyrimidine-6-carboxamide]	0.185	0.0931	–	–
CC(C)(O)CNc1ncc2cc(C(=O)Nc3cc(C(=O)NC(CCO)c4ccccc4)ccc3Cl)c(=O)[nH]c2n1 (stereo not shown) [Example 154, N-(2-Chloro-5-(3-hydroxy-1-phenylpropylcarbamoyl)phenyl)-2-(2-hydroxy-2-methylpropylamino)-7-oxo-7,8-dihydropyrido[2,3-d]pyrimidine-6-carboxamide]	0.078	0.075	–	–

— US20120184542A1, “PYRIDO PYRIMIDINES” (priority 2011, published 2012)
